Measured values published in US7166688B1, “Chelation compositions” (LidoChem, Inc., priority 2000, dated 2007).
Each block holds one compound with its values, some of them ahead of it.

Experiments:
pepper plants = assay: IDS versus EDTA chelates applied to the soil of pepper plants, tissue analysis; format: in vivo
Method: Below is the protocol and tissue analysis for the soil-applied iminodisuccinate and EDTA chelated mineral salts. Treatments: Control—no fertilizer 15-30-15 (fertilizer) alone 15-30-15 plus Cu IDS […] 15-30-15 plus Mn IDS […] 15-30-15 plus Zn IDS […] The standard fertilizer contained no micronutrients. Fertilizer was Hyponex 15-30-15. Each treatment was replicated 3 times. Soil treatments were applied as 50 ml per of the dilute blend of this invention. The pepper plants were transplanted into 1-gallon containers and grown until a suitable size. Plants were treated with the soil-applied chelate. Tissue samples were taken 30 days after the soil treatment had been applied. […] One gallon of fertilizer was poured over three replications of each set in the trial.

[1] = Iron chelation, clear solution / precipitate test; format: physicochemical; details: for appearance of solution / precipitates: 500 ml water, 10 ml 1.8 M ferric nitrate, pH 10, 10 grams potassium phosphate
Method: A five percent chelated iron solution was prepared by blending 18 ml of water with 100 grams of a (10% Fe) ferric nitrate solution. Once in solution, 82 grams of the compound produced in Example 10 was added.
In 25 ml of water, 20 ml of a 1.8M ferric nitrate was added. Once in solution, 30 ml of the diethanolsuccinamide amino ethanol solution produced in Example 17 was added and the pH of the blend was adjusted to 9.2. Then 1 gram of potassium phosphate was added to the mixture.
Five drops of 1.8 M ferric nitrate were added to one liter of water and mechanically blended. Then 10 grams of potassium phosphate were added to the solution and allowed to form insoluble potassium salts.
In 400 ml of water, 20 ml of a 10% ferric nitrate solution were added, and 20 ml of the product from example 25 were added. With mechanical stirring, 40 grams of monopotassium phosphate was added the mix. The pH of the solution was then adjusted to 2 with HCl. The pH of the solution was then gradually raised with the addition of base to a pH of 10.
In 400 ml of water, 10 ml of 1.8 M ferric nitrate solution were added and 20 ml of the product from example 28 were added. With mechanical stirring, 20 grams of monopotassium phosphate was added to the mix. The pH of the solution was then adjusted to 2 with HCL. The pH of the solution was then gradually raised with the addition of Monoethanolamine to a pH of 10.
To a beaker containing one liter of water, 20 grams of potassium phosphate were added to form a clear solution.
Thirty grams of 1.8 M ferric nitrate were added to 100 ml of water. The pH of the solution was lowered to 4 with phosphorous acid, and then 5 grams of Potassium phosphate were then added to the blend. Later 30 ml of the solution produced in example 29 was added.
One hundred ml of the solution prepared in Example 41 was added to 500 ml of water and blended. 10 ml of 1.8-M ferric nitrate was then added to the mixture. […] The potassium salt of maleic acid was tested as a chelating agent.
In a separate flask 20 grams of maleic anhydride were blended in 500 ml of water. Potassium hydroxide was then added to the blend to raise the pH to 10. Later ten ml of 1.8M ferric nitrate was added to the mix and 10 grams of potassium phosphate was also blended in. […] The contents of the flask were then blended again while MEA was added to the mix.

Clover [2] = assay: Foliar applied IDS chelated minerals, tissue analysis, clover; format: in vivo
Method: (§1) An experimental trial was completed testing the efficacy of the Iminodisuccinates (IDS) of this invention on five different crops. Below is the protocol and tissue analysis for both soil and foliar applied iminodisuccinate chelated mineral salts.
(§2) A stock solution for foliar application was prepared by blending 6000 ml of water with T-DAT 09, (Harcross Chemical Company, USA) a surfactant, added to spray mix at 2 drops per liter. • 1). 5 ml of 9% zinc was added to 1 liter of stock solution. • 2). 5 ml of 5% copper was added to 1 liter of stock solution. • 3). 5 ml of 5% manganese was added to 1 liter of stock solution. • 4). 5 ml of 5% Iron was added to 1 liter of stock solution. • 5). 4 ml of 9% zinc, 1 ml of 5% copper, 1 ml of 5% manganese, and 1 ml of 5% iron was added to 1 liter of stock solution. • 6). Stock solution without further addition.
(§3) All plants were sprayed until wet. Harvested material was placed in an oven for one day and sent to the lab for tissue analysis. Harvesting occurred thirty days after planting and some plants had not grown enough to get complete lab results reported. The harvested corn plants were cut at the whirl to insure only new leaves would be tested. The soybeans were clipped above the cotyledon. The alfalfa and clover were removed from the soil and the roots were removed. The wheat was cut at the tillering node.

Clover [3] = assay: Soil applied IDS chelated minerals with 10-34-0, tissue analysis, clover; format: in vivo
Method: as §1
(§4) A). The control pots were watered without any further treatments.
(§5) B). An ammonium polyphosphate stock solution was prepared by adding 50 ml of the 10-34-0 to 4000 ml of water. Treated plants received 100 ml of the stock solution.
(§6) (C). The Zinc stock solution was prepared by blending 10 ml of IDS chelated 9% Zinc to a blend of 50 ml of 10-34-0 with 4000 ml of water. Treated plants received 100 ml of the zinc stock solution.
(§7) (D). The mixture of IDS chelated micronutrients was prepared by adding 4 ml of 9% Zinc, 1 ml of 5% Copper, 1 ml of 5% manganese, and 1 ml of 5% Iron. This mixture was then blended with 4000 ml of water and 50 ml of 10-34-0.
as §3

Corn [4] = assay: Soil applied IDS chelated minerals with 10-34-0, tissue analysis, corn; format: in vivo
Method: as §1, §4, §5, §6, §7, §3

Wheat [5] = assay: Foliar applied IDS chelated minerals, tissue analysis, wheat; format: in vivo
Method: as §1, §2, §3

Wheat [6] = assay: Soil applied IDS chelated minerals with 10-34-0, tissue analysis, wheat; format: in vivo
Method: as §1, §4, §5, §6, §7, §3

Soybean = assay: Foliar applied IDS chelated minerals, tissue analysis, soybeans; format: in vivo
Method: as §1, §2, §3

Corn [7] = assay: Foliar applied IDS chelated minerals, tissue analysis, corn; format: in vivo
Method: as §1, §2, §3

Compound: EDTA [reference compound]
copper in tissue, TREATED (pepper plants; soil applied with 15-30-15, tissue 30 days after treatment, control 8.0): 12.9
TREATED (dry weight) (pepper plants; soil applied, control 4.8): 6.2
TREATED DRY (pepper plants; soil applied, dry weight, CONTROL DRY 4.8): 6.1
copper in tissue, TREATED ADJUSTED (pepper plants; soil applied, tissue level times dry weight, control adjusted 38.08): 80.03
copper in tissue, CHANGE IN (adjusted) (pepper plants; soil applied, treated adjusted minus control adjusted 38.08): 41.95
CHANGE IN WEIGHT (pepper plants; soil applied, treated dry minus control dry 4.8): 1.36
copper in tissue, % CHANGE (adjusted) (pepper plants; soil applied, versus control adjusted 38.08): 110%
% CHANGE (dry weight) (pepper plants; soil applied, versus control dry 4.8): 29%

appearance of solution / precipitates [1]: a rust colored solid precipitated
Compound: O=C([O-])/C=C\C(=O)[O-].[K+].[K+] [potassium salt of maleic acid, reference compound]

Compound: NCCO [MEA, monoethanolamine, reference compound]
redissolution of the precipitate on adding MEA ([1]; MEA added to the potassium maleate / ferric nitrate / potassium phosphate mix at pH 10): The precipitate never went back into solution

Compound: O=C([O-])CC(C(=O)[O-])N(CCO)C(CC(=O)[O-])C(=O)[O-].[K+].[K+].[K+].[K+] (stereo not drawn) [Example 41, N,N-disuccinic-amino-ethanol tetra potassium salt]
appearance of solution / precipitates [1]: orange-red clear solution without precipitates

Compound: COPPER
copper in plant tissue, TREATED (Clover [2]; harvested 30 days after planting, control 9.64): 227 parts per million
copper in plant tissue, CHANGE (Clover [2]; treated minus control 9.64): 217.36 parts per million
copper in plant tissue, TREATED (Clover [3]; soil applied with 10-34-0, harvested 30 days after planting, control 8.91): 20.2
copper in plant tissue, CHANGE (Clover [3]; soil applied, treated minus control 8.91): 11.29
copper in plant tissue, % change (Clover [3]; soil applied, versus control 8.91): 127%
copper in plant tissue, TREATED (Corn [4]; soil applied with 10-34-0, harvested 30 days after planting, control 5.43): 11.7
copper in plant tissue, CHANGE (Corn [4]; soil applied, treated minus control 5.43): 6.27
copper in plant tissue, % (Corn [4]; soil applied, versus control 5.43): 115%
copper in plant tissue, TREATED (Wheat [5]; harvested 30 days after planting, control 10.8): 157 parts per million
copper in plant tissue, CHANGE (Wheat [5]; treated minus control 10.8): 146.2 parts per million
copper in plant tissue, TREATED (Wheat [6]; soil applied with 10-34-0, harvested 30 days after planting, control 6.79): 12.1
copper in plant tissue, CHANGE (Wheat [6]; soil applied, treated minus control 6.79): 5.31
copper in plant tissue, % change (Wheat [6]; soil applied, versus control 6.79): 78%
copper in plant tissue, TREATED (Soybean; harvested 30 days after planting, control 4.74): 937 parts per million
copper in plant tissue, CHANGE (Soybean; treated minus control 4.74): 932.26 parts per million
copper in plant tissue, TREATED (Corn [7]; harvested 30 days after planting, control 5.2): 300 parts per million
copper in plant tissue, CHANGE (Corn [7]; treated minus control 5.2): 294.8 parts per million
copper in plant tissue, % change (Corn [7]; versus control 5.2): 5669%

Compound: IRON
iron in plant tissue, TREATED (Clover [2]; harvested 30 days after planting, control 130): 731 parts per million
iron in plant tissue, CHANGE (Clover [2]; treated minus control 130): 601 parts per million
iron in plant tissue, TREATED (Clover [3]; soil applied with 10-34-0, harvested 30 days after planting, control 143): 224
iron in plant tissue, CHANGE (Clover [3]; soil applied, treated minus control 143): 81
iron in plant tissue, % change (Clover [3]; soil applied, versus control 143): 57%
iron in plant tissue, TREATED (Corn [4]; soil applied with 10-34-0, harvested 30 days after planting, control 45.4): 82.2
iron in plant tissue, CHANGE (Corn [4]; soil applied, treated minus control 45.4): 36.8
iron in plant tissue, % (Corn [4]; soil applied, versus control 45.4): 81%
iron in plant tissue, TREATED (Wheat [5]; harvested 30 days after planting, control 94.5): 334 parts per million
iron in plant tissue, CHANGE (Wheat [5]; treated minus control 94.5): 239.5 parts per million
iron in plant tissue, TREATED (Wheat [6]; soil applied with 10-34-0, harvested 30 days after planting, control 79.3): 90.9
iron in plant tissue, CHANGE (Wheat [6]; soil applied, treated minus control 79.3): 11.6
iron in plant tissue, % change (Wheat [6]; soil applied, versus control 79.3): 15%
iron in plant tissue, TREATED (Soybean; harvested 30 days after planting, control 111): 557 parts per million
iron in plant tissue, CHANGE (Soybean; treated minus control 111): 446 parts per million
iron in plant tissue, % change (Soybean; versus control 111): 402%
iron in plant tissue, TREATED (Corn [7]; harvested 30 days after planting, control 36.9): 494 parts per million
iron in plant tissue, CHANGE (Corn [7]; treated minus control 36.9): 457.1 parts per million
iron in plant tissue, % change (Corn [7]; versus control 36.9): 1239%

Compound: [Mn+2]
manganese in plant tissue, TREATED (Clover [2]; harvested 30 days after planting, control 168): 510 parts per million
manganese in plant tissue, CHANGE (Clover [2]; treated minus control 168): 342 parts per million
manganese in plant tissue, TREATED (Clover [3]; soil applied with 10-34-0, harvested 30 days after planting, control 154): 98.4
manganese in plant tissue, TREATED (Corn [4]; soil applied with 10-34-0, harvested 30 days after planting, control 128): 80.1
manganese in plant tissue, TREATED (Wheat [5]; harvested 30 days after planting, control 72.1): 379 parts per million
manganese in plant tissue, CHANGE (Wheat [5]; treated minus control 72.1): 306.9 parts per million
manganese in plant tissue, TREATED (Wheat [6]; soil applied with 10-34-0, harvested 30 days after planting, control 71.8): 76.2
manganese in plant tissue, CHANGE (Wheat [6]; soil applied, treated minus control 71.8): 4.4
manganese in plant tissue, % change (Wheat [6]; soil applied, versus control 71.8): 6%
manganese in plant tissue, TREATED (Soybean; harvested 30 days after planting, control 230): 544 parts per million
manganese in plant tissue, CHANGE (Soybean; treated minus control 230): 314 parts per million
manganese in plant tissue, % change (Soybean; versus control 230): 137%
manganese in plant tissue, TREATED (Corn [7]; harvested 30 days after planting, control 99.1): 310 parts per million
manganese in plant tissue, CHANGE (Corn [7]; treated minus control 99.1): 210.9 parts per million
manganese in plant tissue, % change (Corn [7]; versus control 99.1): 213%
